# Reference: US20060205673A1, “2-Amino-3-hydroxy-4-tert-leucyl-amino-5-phenyl-pentanoic acid amide derivatives” (priority 2000, published 2006)
# Target: T1, purified human placenta 20S proteasome (Homo sapiens, UniProt P28074)
# T1 construct: 1 μl purified human placenta 20S proteasome; tissue Diabetes Forschungsinstitut, Düsseldorf, Germany; host or cells: human placenta
# Experiment: Inhibition of the chymotrypsin-like activity of the 20S proteasome (Suc-LLVY-AMC hydrolysis)
# Assay type: biochemical
# Conditions: Suc-LLVY-AMC substrate, 60 min preincubation at room temperature, Table 1
# From the text: It is based on the hydrolysis of the fluorogenic peptide Suc-LLVY-AMC (Succinyl-leucine-leucine-valine-tyrosine-7-amino-4-methyl-coumarin), which is cleaved exclusively at the Y-AMC bond by the 20S proteasome. Hydrolysis of this peptide is accompanied by an increase in fluorescence intensity [λex (excitation wavelength): 355 nm; λem (emission wavelength): 460 nm] due to release of the internally quenched […] fluorescence that accompanies diffusion apart of the hydrolysis product Suc-LLVY.
# 2 μl of a 1 mM solution of a test compound in DMSO (dimethylsulfoxide, 20 μM final concentration in the well) are preincubated for 60 min at room temperature in black 96-well microtiter plates together with a mixture of 1 μl purified human placenta 20S proteasome (Diabetes Forschungsinstitut, Düsseldorf, Germany; about 100 ng proteasome, depending on the proteasome preparation) and 47 μl buffer-Ca [5 mM CaCl2, 20 mM Tris/HCl (Tris-(hydroxymethyl)-amino-methane hydrochloride) pH 8.0]. 3 μl of a 2.67 mM solution of Suc-LLVY-AMC (Bachem, Switzerland) in DMSO (80 μM final concentration in the well) and 47 μl buffer-Ca are mixed and added. The resulting mixture is incubated for 3-24 h at 37° C. If desired, proteolysis of the substrate can be stopped by addition of 50 μl stop solution (100 mM monochloroacetic acid, 130 mM NaOH, 100 mM acetic acid, pH=4.3). The fluorescence is monitored with a FLUOROSKAN ASCENT™ microtiter plate reader.
# To each measure series two control experiments have to be carried out:
# 1.) 0% value: 2 μl DMSO are used in the above described assay instead of 2 μl of a 1 mM solution of a test compound in DMSO and 48 μl buffer-Ca instead of a mixture of 47 μl buffer-Ca and 1 μl purified proteasome.
# 2.) 100% value: in the above described assay 2 μl DMSO are used instead of 2 μl of a 1 mM solution of the test compound in DMSO.
# The IC50 value is defined as that concentration of a compound at which the remaining activity is 50%.
row,IC50 [µM],Compound
1,0.029,"COc1ccc(CNC(=O)[C@@H](NC(=O)[C@H](NCc2cc(OC)c(OC)cc2OC)[C@H](O)[C@H](Cc2ccccc2)NC(=O)[C@@H](NC(=O)Cc2cccc3ccccc23)C(C)(C)C)C(C)C)c(O)c1 [Example 14, (2R,3R,4S)-4-[(S)-3,3-Dimethyl-2-(2-naphthalen-1-yl-acetylamino)-butyrylamino]-3-hydroxy-5-phenyl-2-(2,4,5-trimethoxy-benzylamino)-pentanoic acid [(S)-1-(2-hydroxy-4-methoxy-benzylcarbamoyl)-2-methyl-propyl]-amide]"
2,0.05,"COc1ccc(CNC(=O)[C@@H](NC(=O)[C@H](NCc2cc(OC)c(OC)c(OC)c2)[C@H](O)[C@H](Cc2ccccc2)NC(=O)[C@@H](NC(=O)OCc2ccccc2)C(C)(C)C)C(C)C)c(O)c1 [Example 6, {(S)-1-[(1S,2R,3R)-1-Benzyl-2-hydroxy-3-[(S)-1-(2-hydroxy-4-methoxy-benzylcarbamoyl)-2-methyl-propylcarbamoyl]-3-(3,4,5-trimethoxy-benzylamino)-propylcarbamoyl]-2,2-dimethyl-propyl}-carbamic acid benzyl ester]"
3,0.018,"COc1ccc(CNC(=O)[C@@H](NC(=O)[C@H](NCc2ccc(OC)c(OC)c2OC)[C@H](O)[C@H](Cc2ccccc2)NC(=O)[C@@H](NC(=O)Cc2cccc3ccccc23)C(C)(C)C)C(C)C)c(O)c1 [Example 13, (2R,3R,4S)-4-[(S)-3,3-Dimethyl-2-(2-naphthalen-1-yl-acetylamino)-butyrylamino]-3-hydroxy-5-phenyl-2-(2,3,4-trimethoxy-benzylamino)-pentanoic acid [(S)-1-(2-hydroxy-4-methoxy-benzylcarbamoyl)-2-methyl-propyl]-amide]"
4,0.8,"COc1ccc(CN[C@@H](C(=O)N[C@H](C(=O)NCc2cc(Br)ccc2O)C(C)C)[C@H](O)[C@H](Cc2ccccc2)NC(=O)[C@@H](NC(=O)OCc2ccccc2)C(C)(C)C)cc1 [Example 3, {(S)-1-[(1S,2R,3R)-1-Benzyl-3-[(S)-1-(5-bromo-2-hydroxy-benzyl-carbamoyl)-2-methyl-propylcarbamoyl]-2-hydroxy-3-(4-methoxy-benzylamino)-propylcarbamoyl]-2,2-dimethyl-propyl}-carbamic acid benzyl ester]"
5,1.04,"COc1ccc(CNC(=O)[C@@H](NC(=O)[C@H](NCc2cc(OC)c(OC)c(OC)c2)[C@H](O)[C@H](Cc2ccccc2)NC(=O)[C@@H](NC(=O)OC(C)(C)C)C(C)(C)C)C(C)C)c(O)c1 [Example 11, {(S)-1-[(1S,2R,3R)-1-Benzyl-2-hydroxy-3-[(S)-1-(2-hydroxy-4-methoxy-benzylcarbamoyl)-2-methyl-propylcarbamoyl]-3-(3,4,5-trimethoxy-benzylamino)-propylcarbamoyl]-2,2-dimethyl-propyl}-carbamic acid tert-butyl ester]"

# The next lines start with the compound.
row,Compound,IC50 [µM]
1,"COc1ccc(CNC(=O)[C@@H](NC(=O)[C@H](NCc2ccc(N(C)C)cc2)[C@H](O)[C@H](Cc2ccccc2)NC(=O)[C@@H](NC(=O)Cc2cccc3ccccc23)C(C)(C)C)C(C)C)c(O)c1 [Example 16, (2R,3R,4S)-2-(4-Dimethylamino-benzylamino)-4-[(S)-3,3-dimethyl-2-(2-naphthalen-1-yl-acetylamino)-butyrylamino]-3-hydroxy-5-phenyl-pentanoic acid [(S)-1-(2-hydroxy-4-methoxy-benzylcarbamoyl)-2-methyl-propyl]-amide]",0.16
2,"COc1ccc(CNC(=O)[C@@H](NC(=O)[C@H](NCc2ccc(OC)c(OC)c2)[C@H](O)[C@H](Cc2ccccc2)NC(=O)[C@@H](NC(=O)OCc2ccccc2)C(C)(C)C)C(C)C)c(O)c1 [Example 8, ((S)-1-{(1S,2R,3R)-1-Benzyl-3-(3,4-dimethoxy-benzylamino)-2-hydroxy-3-[(S)-1-(2-hydroxy-4-methoxy-benzylcarbamoyl)-2-methyl-propylcarbamoyl]-propylcarbamoyl}-2,2-dimethyl-propyl)-carbamic acid benzyl ester]",0.15
3,"COc1ccc(CNC(=O)[C@@H](NC(=O)[C@H](NCc2cccc3ccccc23)[C@H](O)[C@H](Cc2ccccc2)NC(=O)[C@@H](NC(=O)Cc2cccc3ccccc23)C(C)(C)C)C(C)C)c(O)c1 [Example 15, (2R,3R,4S)-4-[(S)-3,3-Dimethyl-2-(2-naphthalen-1-yl-acetylamino)-butyrylamino]-3-hydroxy-2-[(naphthalen-1-ylmethyl)-amino]-5-phenyl-pentanoic acid [(S)-1-(2-hydroxy-4-methoxy-benzylcarbamoyl)-2-methyl-propyl]-amide]",0.15
4,"COc1ccc(CNC(=O)[C@@H](NC(=O)[C@H](NCc2cc(OC)c(OC)c(OC)c2)[C@H](O)[C@H](Cc2ccccc2)NC(=O)[C@@H](NC(=O)Cc2cccc3ccccc23)C(C)(C)C)C(C)C)c(O)c1 [Example 12, (2R,3R,4S)-4-[(S)-3,3-Dimethyl-2-(2-naphthalen-1-yl-acetylamino)-butyrylamino]-3-hydroxy-5-phenyl-2-(3,4,5-trimethoxy-benzylamino)-pentanoic acid [(S)-1-(2-hydroxy-4-methoxy-benzylcarbamoyl)-2-methyl-propyl]-amide]",0.011
5,"COc1ccc(CNC(=O)[C@@H](NC(=O)[C@H](NCc2cc(OC)c(OC)cc2OC)[C@H](O)[C@H](Cc2ccccc2)NC(=O)[C@@H](NC(=O)OCc2ccccc2)C(C)(C)C)C(C)C)c(O)c1 [Example 10, {(S)-1-[(1S,2R,3R)-1-Benzyl-2-hydroxy-3-[(S)-1-(2-hydroxy-4-methoxy-benzylcarbamoyl)-2-methyl-propylcarbamoyl]-3-(2,4,5-trimethoxy-benzylamino)-propylcarbamoyl]-2,2-dimethyl-propyl}-carbamic acid benzyl ester]",0.2
6,"COc1cccc(CN[C@@H](C(=O)N[C@H](C(=O)NCc2ccc(OC)cc2O)C(C)C)[C@H](O)[C@H](Cc2ccccc2)NC(=O)[C@@H](NC(=O)OCc2ccccc2)C(C)(C)C)c1 [Example 4, {(S)-1-[(1S,2R,3R)-1-Benzyl-2-hydroxy-3-[(S)-1-(2-hydroxy-4-methoxy-benzylcarbamoyl)-2-methyl-propylcarbamoyl]-3-(3-methoxy-benzylamino)-propylcarbamoyl]-2,2-dimethyl-propyl}-carbamic acid benzyl ester]",1.5
7,"COc1ccc(CNC(=O)[C@@H](NC(=O)[C@H](NCc2ccc(OC)c(OC)c2OC)[C@H](O)[C@H](Cc2ccccc2)NC(=O)[C@@H](NC(=O)OCc2ccccc2)C(C)(C)C)C(C)C)c(O)c1 [Example 7, {(S)-1-[(1S,2R,3R)-1-Benzyl-2-hydroxy-3-[(S)-1-(2-hydroxy-4-methoxy-benzylcarbamoyl)-2-methyl-propylcarbamoyl]-3-(2,3,4-trimethoxy-benzylamino) -propylcarbamoyl]-2,2-dimethyl-propyl}-carbamic acid benzyl ester]",0.1
8,"COc1ccc(CNC(=O)[C@@H](NC(=O)[C@H](NCc2ccc(N(C)C)cc2)[C@H](O)[C@H](Cc2ccccc2)NC(=O)[C@@H](NC(=O)OCc2ccccc2)C(C)(C)C)C(C)C)c(O)c1 [Example 2, ((S)-1-{(1S,2R,3R)-1-Benzyl-3-(4-dimethylamino-benzylamino)-2-hydroxy-3-[(S)-1-(2-hydroxy-4-methoxy-benzylcarbamoyl)-2-methyl-propylcarbamoyl]-propylcarbamoyl}-2,2-dimethyl-propyl)-carbamic acid benzyl ester]",0.6
9,"COc1ccc(CNC(=O)[C@@H](NC(=O)[C@H](NCc2cccc3ccccc23)[C@H](O)[C@H](Cc2ccccc2)NC(=O)[C@@H](NC(=O)OCc2ccccc2)C(C)(C)C)C(C)C)c(O)c1 [Example 1, ((S)-1-{(1S,2R,3R)-1-Benzyl-2-hydroxy-3-[(S)-1-(2-hydroxy-4-methoxy-benzylcarbamoyl)-2-methyl-propylcarbamoyl]-3-[(naphthalen-1-ylmethyl)-amino]-propylcarbamoyl}-2,2-dimethyl-propyl)-carbamic acid benzyl ester]",0.26
10,"COc1cc(CN[C@@H](C(=O)N[C@H](C(=O)NCc2ccc(OC)cc2O)C(C)C)[C@H](O)[C@H](Cc2ccccc2)NC(=O)[C@@H](NC(=O)OCc2ccccc2)C(C)(C)C)cc(OC)c1 [Example 9, ((S)-1-{(1S,2R,3R)-1-Benzyl-3-(3,5-dimethoxy-benzylamino)-2-hydroxy-3[(S)-1-(2-hydroxy-4-methoxy-benzylcarbamoyl)-2-methyl-propylcarbamoyl]-propylcarbamoyl}-2,2-dimethyl-propyl)-carbamic acid benzyl ester]",0.19
